Measurements published in ChEMBL document CHEMBL1201862, “PubChem BioAssay data set” (2004).
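Five concentrations, 48 hours, 96-well plates. GI50 is the concentration that inhibits growth by half.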 Active and inactive are the calls of the source. Rule as the data show it: active = GI50 up to about 1.1 µM and inactive = higher.

Columns and labels:
Assay in all cases: DTP human tumour cell line panel, 48 h
786-0 = test system: 786-0
A498 = test system: A498
A549 = test system: A549
ACHN = test system: ACHN
BT-549 = test system: BT-549
CAKI-1 = test system: CAKI-1
CCRF-CEM = test system: CCRF-CEM
COLO 205 = test system: COLO 205
DU-145 = test system: DU-145
EKVX = test system: EKVX
HCC 2998 = test system: HCC 2998
HCT-116 = test system: HCT-116
HCT-15 = test system: HCT-15
HOP-62 = test system: HOP-62
HOP-92 = test system: HOP-92
HT-29 = test system: HT-29
Hs-578T = test system: Hs-578T
IGROV-1 = test system: IGROV-1
K562 = test system: K562
KM12 = test system: KM12
LOX IMVI = test system: LOX IMVI
M14 = test system: M14
MCF7 = test system: MCF7
MDA-MB-231 = test system: MDA-MB-231
MDA-MB-435 = test system: MDA-MB-435
MDA-N = test system: MDA-N
Malme-3M = test system: Malme-3M
NCI-H226 = test system: NCI-H226
NCI-H23 = test system: NCI-H23
NCI-H460 = test system: NCI-H460
NCI-H522 = test system: NCI-H522
NCI/ADR-RES = test system: NCI/ADR-RES
OVCAR-3 = test system: OVCAR-3
OVCAR-4 = test system: OVCAR-4
OVCAR-5 = test system: OVCAR-5
OVCAR-8 = test system: OVCAR-8
PC-3 = test system: PC-3
RPMI-8226 = test system: RPMI-8226
RXF 393 = test system: RXF 393
SF-268 = test system: SF-268
SF-295 = test system: SF-295
SF-539 = test system: SF-539
SK-MEL-28 = test system: SK-MEL-28
SK-MEL-2 = test system: SK-MEL-2
SK-MEL-5 = test system: SK-MEL-5
SK-OV-3 = test system: SK-OV-3
SN12C = test system: SN12C
SNB-19 = test system: SNB-19
SNB-75 = test system: SNB-75
SW-620 = test system: SW-620
T47D = test system: T47D
TK-10 = test system: TK-10
U-251 = test system: U-251
UACC-257 = test system: UACC-257
UO-31 = test system: UO-31
HL-60 = test system: HL-60
MOLT-4 = test system: MOLT-4
UACC-62 = test system: UACC-62

Measured: GI50

CC(C)N1C=[N+](C(C)C)CC1
> 100 µM: HCT-15
inactive: 786-0 > 100 µM | A498 > 100 µM | A549 > 100 µM | ACHN > 100 µM | BT-549 > 100 µM | CAKI-1 > 100 µM | CCRF-CEM > 100 µM | COLO 205 > 100 µM | DU-145 > 100 µM | EKVX > 100 µM | HCC 2998 > 100 µM | HCT-116 > 100 µM | HOP-62 > 100 µM | HOP-92 > 100 µM | HT-29 > 100 µM | Hs-578T > 100 µM | IGROV-1 > 100 µM | K562 > 100 µM | KM12 > 100 µM | LOX IMVI > 100 µM | M14 > 100 µM | MCF7 > 100 µM | MDA-MB-231 > 100 µM | MDA-MB-435 > 100 µM | MDA-N > 100 µM | Malme-3M > 100 µM | NCI-H226 > 100 µM | NCI-H23 > 100 µM | NCI-H460 > 100 µM | NCI-H522 > 100 µM | NCI/ADR-RES > 100 µM | OVCAR-3 > 100 µM | OVCAR-4 > 100 µM | OVCAR-5 > 100 µM | OVCAR-8 > 100 µM | PC-3 > 100 µM | RPMI-8226 > 100 µM | RXF 393 > 100 µM | SF-268 > 100 µM | SF-295 > 100 µM | SF-539 > 100 µM | SK-MEL-28 > 100 µM | SK-MEL-2 > 100 µM | SK-MEL-5 > 100 µM | SK-OV-3 > 100 µM | SN12C > 100 µM | SNB-19 > 100 µM | SNB-75 > 100 µM | SW-620 > 100 µM | T47D > 100 µM | TK-10 > 100 µM | U-251 > 100 µM | UACC-257 > 100 µM | UO-31 > 100 µM

CCOC(=O)c1nnsc1NN=C(C)C
inactive: 786-0 > 100 µM | A498 > 100 µM | A549 > 100 µM | BT-549 > 100 µM | CAKI-1 > 100 µM | COLO 205 > 100 µM | DU-145 > 100 µM | EKVX > 100 µM | HCC 2998 > 100 µM | HCT-116 > 100 µM | HL-60 > 100 µM | HOP-62 > 100 µM | HT-29 > 100 µM | Hs-578T > 100 µM | IGROV-1 > 100 µM | K562 > 100 µM | KM12 > 100 µM | LOX IMVI > 100 µM | M14 > 100 µM | MDA-MB-231 > 100 µM | MDA-MB-435 > 100 µM | MDA-N > 100 µM | MOLT-4 > 100 µM | Malme-3M > 100 µM | NCI-H226 > 100 µM | NCI-H23 > 100 µM | NCI-H460 > 100 µM | NCI-H522 > 100 µM | NCI/ADR-RES > 100 µM | OVCAR-3 > 100 µM | OVCAR-4 > 100 µM | OVCAR-5 > 100 µM | OVCAR-8 > 100 µM | PC-3 > 100 µM | RPMI-8226 > 100 µM | RXF 393 > 100 µM | SF-268 > 100 µM | SF-295 > 100 µM | SF-539 > 100 µM | SK-MEL-28 > 100 µM | SK-MEL-2 > 100 µM | SK-MEL-5 > 100 µM | SK-OV-3 > 100 µM | SN12C > 100 µM | SNB-75 > 100 µM | SW-620 > 100 µM | T47D > 100 µM | TK-10 > 100 µM | U-251 > 100 µM | UACC-257 > 100 µM | UACC-62 > 100 µM | UO-31 > 100 µM
> 100 µM: HCT-15
